# Measured values published in PubChem BioAssay (NCI).
#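 Cells were grown in 96-well plates and exposed to each compound for 48 hours at five concentrations; endpoints were interpolated linearly between bracketing concentrations, or set to the highest concentration if not reached. GI50: concentration for 50% inhibition of growth. TGI denotes the concentration required for complete inhibition of growth.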
# How the values were obtained:
# Experiment in all cases: NCI anticancer screen, dose series, 48 h
# TK-10 renal = system: TK-10 renal
# LOX IMVI melanoma = system: LOX IMVI melanoma
# UACC-62 melanoma = system: UACC-62 melanoma
# HCT-15 colon = system: HCT-15 colon
# RPMI-8226 leukemia = system: RPMI-8226 leukemia
# U251 CNS = system: U251 CNS
# MDA-MB-231 breast = system: MDA-MB-231 breast
# M14 melanoma = system: M14 melanoma
# SNB-19 CNS = system: SNB-19 CNS
# HL-60(TB) leukemia = system: HL-60(TB) leukemia
# NCI/ADR-RES ovarian = system: NCI/ADR-RES ovarian
# MDA-MB-435 = system: MDA-MB-435
# IGROV1 ovarian = system: IGROV1 ovarian
# SK-MEL-28 melanoma = system: SK-MEL-28 melanoma
# SNB-75 CNS = system: SNB-75 CNS
# HOP-92 NSCLC = system: HOP-92 NSCLC
# A498 renal = system: A498 renal
# 786-0 renal = system: 786-0 renal
# OVCAR-8 ovarian = system: OVCAR-8 ovarian
# BT-549 breast = system: BT-549 breast
# MOLT-4 leukemia = system: MOLT-4 leukemia
# PC-3 prostate = system: PC-3 prostate
# MDA-MB-468 breast = system: MDA-MB-468 breast
# K-562 leukemia = system: K-562 leukemia
# A549 NSCLC = system: A549 NSCLC
# SK-MEL-2 melanoma = system: SK-MEL-2 melanoma
# SK-OV-3 ovarian = system: SK-OV-3 ovarian
# SW-620 colon = system: SW-620 colon
# MALME-3M melanoma = system: MALME-3M melanoma
# CAKI-1 renal = system: CAKI-1 renal
# KM12 colon = system: KM12 colon
# NCI-H522 lung = system: NCI-H522 lung
# SF-295 CNS = system: SF-295 CNS
# RXF 393 renal = system: RXF 393 renal
# HT29 colon = system: HT29 colon
# DU-145 prostate = system: DU-145 prostate
# HS 578T breast = system: HS 578T breast
# NCI-H23 lung = system: NCI-H23 lung
# COLO 205 colon = system: COLO 205 colon
# SF-539 CNS = system: SF-539 CNS
# HOP-62 NSCLC = system: HOP-62 NSCLC
# CCRF-CEM leukemia = system: CCRF-CEM leukemia
# HCT-116 colon = system: HCT-116 colon
# SR leukemia = system: SR leukemia
# SF-268 CNS = system: SF-268 CNS
# UACC-257 melanoma = system: UACC-257 melanoma
# OVCAR-5 ovarian = system: OVCAR-5 ovarian
# EKVX NSCLC = system: EKVX NSCLC
# SN12C renal = system: SN12C renal
# ACHN renal = system: ACHN renal
# OVCAR-4 ovarian = system: OVCAR-4 ovarian
# UO-31 renal = system: UO-31 renal
# SK-MEL-5 melanoma = system: SK-MEL-5 melanoma
# OVCAR-3 ovarian = system: OVCAR-3 ovarian
# HCC-2998 colon = system: HCC-2998 colon
# NCI-H226 lung = system: NCI-H226 lung
compound,measurement,setting,value
Cc1noc2c(Cc3ccccc3)nn(CC(=O)N/N=C/c3ccc(Cl)cc3)c(=O)c12,GI50,TK-10 renal,1.9 µM
same,TGI,TK-10 renal,4.74 µM
same,GI50,LOX IMVI melanoma,5.61 µM
same,TGI,LOX IMVI melanoma,> 100 µM
same,GI50,UACC-62 melanoma,18.3 µM
same,TGI,UACC-62 melanoma,86 µM
same,GI50,HCT-15 colon,> 100 µM
same,TGI,HCT-15 colon,> 100 µM
same,GI50,RPMI-8226 leukemia,8.98 µM
same,TGI,RPMI-8226 leukemia,> 100 µM
same,GI50,U251 CNS,3.64 µM
same,TGI,U251 CNS,> 100 µM
same,GI50,MDA-MB-231 breast,2.59 µM
same,TGI,MDA-MB-231 breast,7.3 µM
same,GI50,M14 melanoma,43.6 µM
same,TGI,M14 melanoma,> 100 µM
same,GI50,SNB-19 CNS,8.48 µM
same,TGI,SNB-19 CNS,26.7 µM
same,GI50,HL-60(TB) leukemia,> 100 µM
same,TGI,HL-60(TB) leukemia,> 100 µM
same,GI50,NCI/ADR-RES ovarian,4.93 µM
same,TGI,NCI/ADR-RES ovarian,> 100 µM
same,GI50,MDA-MB-435,> 100 µM
same,TGI,MDA-MB-435,> 100 µM
same,GI50,IGROV1 ovarian,6.95 µM
same,TGI,IGROV1 ovarian,31.2 µM
same,GI50,SK-MEL-28 melanoma,> 100 µM
same,TGI,SK-MEL-28 melanoma,> 100 µM
same,GI50,SNB-75 CNS,1.59 µM
same,TGI,SNB-75 CNS,4.36 µM
same,GI50,HOP-92 NSCLC,3.01 µM
same,TGI,HOP-92 NSCLC,16.6 µM
same,GI50,A498 renal,1.65 µM
same,TGI,A498 renal,3.11 µM
same,GI50,786-0 renal,1.94 µM
same,TGI,786-0 renal,3.84 µM
same,GI50,OVCAR-8 ovarian,3.18 µM
same,TGI,OVCAR-8 ovarian,> 100 µM
same,GI50,BT-549 breast,23.8 µM
same,TGI,BT-549 breast,90.6 µM
same,GI50,MOLT-4 leukemia,> 100 µM
same,TGI,MOLT-4 leukemia,> 100 µM
same,GI50,PC-3 prostate,> 100 µM
same,TGI,PC-3 prostate,> 100 µM
same,GI50,MDA-MB-468 breast,8.11 µM
same,TGI,MDA-MB-468 breast,36.2 µM
same,GI50,K-562 leukemia,88.6 µM
same,TGI,K-562 leukemia,> 100 µM
same,GI50,A549 NSCLC,3.87 µM
same,TGI,A549 NSCLC,> 100 µM
same,GI50,SK-MEL-2 melanoma,19.1 µM
same,TGI,SK-MEL-2 melanoma,38.4 µM
same,GI50,SK-OV-3 ovarian,2.34 µM
same,TGI,SK-OV-3 ovarian,5.85 µM
same,GI50,SW-620 colon,> 100 µM
same,TGI,SW-620 colon,> 100 µM
same,GI50,MALME-3M melanoma,4.23 µM
same,TGI,MALME-3M melanoma,29.1 µM
same,GI50,CAKI-1 renal,2.88 µM
same,TGI,CAKI-1 renal,11.1 µM
same,GI50,KM12 colon,> 100 µM
same,TGI,KM12 colon,> 100 µM
same,GI50,NCI-H522 lung,15.4 µM
same,TGI,NCI-H522 lung,> 100 µM
same,GI50,SF-295 CNS,3.19 µM
same,TGI,SF-295 CNS,8.64 µM
same,GI50,RXF 393 renal,2.15 µM
same,TGI,RXF 393 renal,6.87 µM
same,GI50,HT29 colon,> 100 µM
same,TGI,HT29 colon,> 100 µM
same,GI50,DU-145 prostate,> 100 µM
same,TGI,DU-145 prostate,> 100 µM
same,GI50,HS 578T breast,2.31 µM
same,TGI,HS 578T breast,6.23 µM
same,GI50,NCI-H23 lung,10.2 µM
same,TGI,NCI-H23 lung,53.7 µM
same,GI50,COLO 205 colon,5.04 µM
same,TGI,COLO 205 colon,> 100 µM
same,GI50,SF-539 CNS,14.1 µM
same,TGI,SF-539 CNS,35.9 µM
same,GI50,HOP-62 NSCLC,2.06 µM
same,TGI,HOP-62 NSCLC,4.97 µM
same,GI50,CCRF-CEM leukemia,21.1 µM
same,TGI,CCRF-CEM leukemia,> 100 µM
same,GI50,HCT-116 colon,3.16 µM
same,TGI,HCT-116 colon,> 100 µM
same,GI50,SR leukemia,31.2 µM
same,TGI,SR leukemia,> 100 µM
same,GI50,SF-268 CNS,7.82 µM
same,TGI,SF-268 CNS,> 100 µM
same,GI50,UACC-257 melanoma,> 100 µM
same,TGI,UACC-257 melanoma,> 100 µM
N[C@@H](CSSC[C@H](N)C(=O)Nc1ccc(OCC2CCCC2)cc1)C(=O)Nc1ccc(OCC2CCCC2)cc1,GI50,TK-10 renal,1.76 µM
same,TGI,TK-10 renal,3.23 µM
same,GI50,UACC-62 melanoma,0.612 µM
same,TGI,UACC-62 melanoma,1.38 µM
same,GI50,HCT-15 colon,0.23 µM
same,TGI,HCT-15 colon,0.604 µM
same,GI50,RPMI-8226 leukemia,0.738 µM
same,TGI,RPMI-8226 leukemia,2.43 µM
same,GI50,OVCAR-5 ovarian,1.14 µM
same,TGI,OVCAR-5 ovarian,2.38 µM
same,GI50,MDA-MB-231 breast,0.202 µM
same,TGI,MDA-MB-231 breast,0.422 µM
same,GI50,M14 melanoma,0.178 µM
same,TGI,M14 melanoma,0.344 µM
same,GI50,EKVX NSCLC,0.427 µM
same,TGI,EKVX NSCLC,1.54 µM
same,GI50,SNB-19 CNS,0.545 µM
same,TGI,SNB-19 CNS,1.19 µM
same,GI50,HL-60(TB) leukemia,0.228 µM
same,TGI,HL-60(TB) leukemia,0.777 µM
same,GI50,SN12C renal,0.46 µM
same,TGI,SN12C renal,0.96 µM
same,GI50,MDA-MB-435,0.163 µM
same,TGI,MDA-MB-435,0.34 µM
same,GI50,ACHN renal,0.423 µM
same,TGI,ACHN renal,1.49 µM
same,GI50,IGROV1 ovarian,0.292 µM
same,TGI,IGROV1 ovarian,0.823 µM
same,GI50,SK-MEL-28 melanoma,1.26 µM
same,TGI,SK-MEL-28 melanoma,2.55 µM
same,GI50,SNB-75 CNS,0.192 µM
same,TGI,SNB-75 CNS,0.45 µM
same,GI50,HOP-92 NSCLC,1.74 µM
same,TGI,HOP-92 NSCLC,3.43 µM
same,GI50,A498 renal,7.15 µM
same,TGI,A498 renal,20.1 µM
same,GI50,OVCAR-4 ovarian,0.389 µM
same,TGI,OVCAR-4 ovarian,1.65 µM
same,GI50,786-0 renal,1.64 µM
same,TGI,786-0 renal,3.1 µM
same,GI50,UO-31 renal,0.716 µM
same,TGI,UO-31 renal,2.02 µM
same,GI50,SK-MEL-5 melanoma,0.871 µM
same,TGI,SK-MEL-5 melanoma,2.13 µM
same,GI50,OVCAR-3 ovarian,0.765 µM
same,TGI,OVCAR-3 ovarian,2.09 µM
same,GI50,HCC-2998 colon,0.278 µM
same,TGI,HCC-2998 colon,0.793 µM
same,GI50,BT-549 breast,1.46 µM
same,TGI,BT-549 breast,3.03 µM
same,GI50,MOLT-4 leukemia,0.223 µM
same,TGI,MOLT-4 leukemia,0.501 µM
same,GI50,PC-3 prostate,0.222 µM
same,TGI,PC-3 prostate,0.53 µM
same,GI50,MDA-MB-468 breast,0.539 µM
same,TGI,MDA-MB-468 breast,1.39 µM
same,GI50,K-562 leukemia,0.194 µM
same,TGI,K-562 leukemia,0.434 µM
same,GI50,NCI-H226 lung,1.72 µM
same,TGI,NCI-H226 lung,3.4 µM
same,GI50,SK-MEL-2 melanoma,1.7 µM
same,TGI,SK-MEL-2 melanoma,3.17 µM
same,GI50,SK-OV-3 ovarian,0.57 µM
same,TGI,SK-OV-3 ovarian,1.73 µM
same,GI50,MALME-3M melanoma,6.71 µM
same,TGI,MALME-3M melanoma,19.6 µM
same,GI50,CAKI-1 renal,0.677 µM
same,TGI,CAKI-1 renal,1.9 µM
same,GI50,KM12 colon,0.182 µM
same,TGI,KM12 colon,0.364 µM
same,GI50,NCI-H522 lung,1.51 µM
same,TGI,NCI-H522 lung,3.03 µM
same,GI50,DU-145 prostate,0.339 µM
same,TGI,DU-145 prostate,1.15 µM
same,GI50,NCI-H23 lung,0.408 µM
same,TGI,NCI-H23 lung,1.51 µM
same,GI50,COLO 205 colon,3.23 µM
same,TGI,COLO 205 colon,12 µM
same,GI50,SF-539 CNS,0.461 µM
same,TGI,SF-539 CNS,1.52 µM
same,GI50,CCRF-CEM leukemia,0.17 µM
same,TGI,CCRF-CEM leukemia,0.374 µM
same,GI50,SR leukemia,0.214 µM
same,TGI,SR leukemia,0.584 µM
same,GI50,UACC-257 melanoma,1.74 µM
same,TGI,UACC-257 melanoma,3.46 µM
